Results taken from the supplement of paper PMC10011410.
± gives the standard deviation of the averaged measurements.

Assays:
U-2 OS [1] = assay: intracellular GSH:GSSG ratio (calculated); higher = more reduced glutathione pool; settings: 24 h
Experimental: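 Intracellular glutathione in U-2 OS cells after 24 h compound treatment at 5, 10 and 20 uM (some at 40 and 80 uM). Total glutathione and GSSG were measured with the GSH/GSSG-Glo kit, and the GSH:GSSG ratio was calculated. Mean of five technical replicate plates.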

U-2 OS [2] = assay: cell painting activity score (Mahalanobis distance from DMSO wells); higher = stronger morphological phenotype; settings: 24 h
Outline: (§1)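 U-2 OS cells were seeded at about 1,500 per well in 384-well plates and treated by pin tool for 24 h at 37 °C, usually at six 2-fold concentrations from 20 μM to 625 nM. After staining with MitoTracker, concanavalin A, phalloidin, wheat germ agglutinin, Hoechst and SYTO 14, plates were imaged on an Opera Phenix and features were extracted with CellProfiler and normalized to DMSO cells on the same plate. The activity score is the Mahalanobis distance from DMSO wells, and cell count is given relative to DMSO wells. Each value is the mean of four replicate plates.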

U-2 OS [3] = assay: AUC of culture confluence over time (live-cell imaging) (AUC (confluence % x time)); higher = more confluent culture (less growth inhibition)
Outline: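 The value is the area under the curve of confluence plotted against time. U-2 OS cells in F-12K medium with 10% FBS were seeded at 750 per well in 384-well plates, then treated by pin tool 24 h later, most compounds at 20, 10 and 5 μM with 0.2% DMSO. At 37 °C, an Incucyte S3 with a 10x objective imaged the wells every 4 h for up to 60 h.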

U-2 OS [4] = assay: total intracellular glutathione (GSH + GSSG) relative to DMSO (% of control); higher = more glutathione; settings: 24 h
Experimental: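 Total intracellular glutathione (GSH + GSSG) in U-2 OS cells by GSH/GSSG-Glo after 24 h compound treatment at 5, 10 and 20 uM (some at 40 and 80 uM), as percent of DMSO control. Five technical replicate plates, averaged.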

U-2 OS [5] = assay: relative cell count vs DMSO (cell painting) (fraction of DMSO control); higher = more cells remaining (less cytotoxic); settings: 24 h
Outline: as §1

U-2 OS [6] = assay: cell viability (CellTiter-Glo) relative to DMSO (% of control); higher = more viable; settings: 24 h
Experimental: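 Cell viability of U-2 OS cells by CellTiter-Glo after 24 h compound treatment at 5, 10 and 20 uM (some at 40 and 80 uM), measured in parallel with the glutathione assay, as percent of DMSO control. Five technical replicate plates, averaged.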

Compound	intracellular GSH:GSSG ratio (U-2 OS [1]; 5 µM)	intracellular GSH:GSSG ratio (U-2 OS [1]; 10 µM)	intracellular GSH:GSSG ratio (U-2 OS [1]; 20 µM)	intracellular GSH:GSSG ratio (U-2 OS [1]; 40 µM)	intracellular GSH:GSSG ratio (U-2 OS [1]; 80 µM)	cell painting activity score (U-2 OS [2]; 0.625 µM)	cell painting activity score (U-2 OS [2]; 1.25 µM)	cell painting activity score (U-2 OS [2]; 2.5 µM)	cell painting activity score (U-2 OS [2]; 5 µM)	cell painting activity score (U-2 OS [2]; 10 µM)	cell painting activity score (U-2 OS [2]; 20 µM)	AUC of culture confluence over time (U-2 OS [3]; 5 µM)	total intracellular glutathione (U-2 OS [4]; 5 µM)	total intracellular glutathione (U-2 OS [4]; 10 µM)	total intracellular glutathione (U-2 OS [4]; 20 µM)	total intracellular glutathione (U-2 OS [4]; 40 µM)	total intracellular glutathione (U-2 OS [4]; 80 µM)	relative cell count (U-2 OS [5]; 0.625 µM)	relative cell count (U-2 OS [5]; 1.25 µM)	relative cell count (U-2 OS [5]; 2.5 µM)	relative cell count (U-2 OS [5]; 5 µM)	relative cell count (U-2 OS [5]; 10 µM)	relative cell count (U-2 OS [5]; 20 µM)	cell viability (U-2 OS [6]; 5 µM)	cell viability (U-2 OS [6]; 10 µM)	cell viability (U-2 OS [6]; 20 µM)	cell viability (U-2 OS [6]; 40 µM)	cell viability (U-2 OS [6]; 80 µM)	AUC of culture confluence over time (U-2 OS [3]; 10 µM)	AUC of culture confluence over time (U-2 OS [3]; 20 µM)	cell painting activity score (U-2 OS [2]; 40 µM)	cell painting activity score (U-2 OS [2]; 80 µM)	AUC of culture confluence over time (U-2 OS [3]; 40 µM)	AUC of culture confluence over time (U-2 OS [3]; 80 µM)	relative cell count (U-2 OS [5]; 40 µM)	relative cell count (U-2 OS [5]; 80 µM)
O=C1/C(=C/c2ccc(O)c(Br)c2)CCC/C1=C\c1ccc(O)c(Br)c1	15.5	14	11.9	9.48	3.73	4.8	5.76	5.97	8.32	9.31	12.2	49.5	113 ± 2.6	126 ± 4.8	120 ± 2.2	119 ± 3.6	13.4 ± 2.5	1.01	1.02	0.982	0.904	0.96	0.55	100 ± 4.4	95.1 ± 4.6	94.1 ± 5.6	88.5 ± 5.9	11.9 ± 2.3	–	–	–	–	–	–	–	–
Cn1c(=O)n(-c2ccc(C(C)(C)C#N)cc2)c2c3cc(-c4cnc5ccccc5c4)ccc3ncc21	23.9	22.6	29.4	–	–	11.8	12.3	12.8	12.8	12.6	12.8	31.4	71.3 ± 4.7	70.8 ± 2.6	68.2 ± 2.1	–	–	0.853	0.819	0.802	0.83	0.788	0.765	68.1 ± 3.9	62.4 ± 1.9	63.2 ± 3.4	–	–	28.4	27.6	–	–	–	–	–	–
Nc1nc(-c2ccccc2)ns1	29.7	23.5	27.1	–	–	3.85	4.11	4.04	3.13	2.93	3.84	44.7	107 ± 7.8	89.3 ± 4	117 ± 7.1	–	–	1	0.944	0.943	0.973	1	1.01	104 ± 5.4	104 ± 3	101 ± 6.3	–	–	46.7	45.6	–	–	–	–	–	–
CC(C)[C@H](C(=O)Nc1ccc(C(=O)NO)cc1)c1ccccc1	6.7	7.56	–	–	–	16.9	20.2	19.4	17.6	13.3	15.9	18.7	40.8 ± 2.6	40.5 ± 3.5	39.6 ± 4.1	–	–	0.727	0.52	0.497	0.465	0.442	0.41	44.2 ± 4.6	44 ± 1.6	44 ± 1.6	–	–	20	18.2	–	–	–	–	–	–
COc1ccc(N2C(=O)CC(Sc3nnc(-c4ccccc4)o3)C2=O)cc1 (stereo unspecified)	26.4	14.5	4.1	–	–	2.96	3.59	3.44	4.49	6.07	11.5	24.5	97.4 ± 5.6	97.1 ± 17	20 ± 8	–	–	1.1	1.07	1.16	1.08	1.1	0.796	105 ± 6.2	91.8 ± 19	9.21 ± 6.6	–	–	11.3	11.9	–	–	–	–	–	–
CCCCCCCc1ccc(CCc2cccc(O)c2C(=O)O)cc1	21.3	17.1	15.3	15.7	11.3	4.31	3.72	4.79	5.56	4.29	6.6	41.6	93.7 ± 3.8	93.1 ± 7.4	83.9 ± 4	62.5 ± 9.8	30.7 ± 11	1.05	1.11	1.12	1.11	1.11	0.741	98.6 ± 2.9	98.6 ± 4.4	94.4 ± 4.6	66.6 ± 7.9	17.1 ± 8.5	34.5	31.5	19.1	23.3	24.6	17.9	0.307	0.365
C[C@H]1CCC/C=C/[C@@H]2C[C@H](O)C[C@H]2[C@H](O)/C=C/C(=O)O1	26.9	17.4	16.1	–	–	15.2	14.7	15.3	15.9	15.9	17.6	18.6	54 ± 2.2	41.5 ± 18	45.2 ± 18	–	–	0.653	0.645	0.645	0.629	0.562	0.479	62.9 ± 3.7	64.5 ± 1.9	63.8 ± 3.9	–	–	18.1	18.2	–	–	–	–	–	–
COc1ccc(N(C(=O)CCl)C(C(=O)NCCc2ccccc2)c2cccs2)cc1Cl (stereo unspecified)	4.03	5.85	–	–	–	9.81	11	11.4	14.4	32.8	32.2	15.9	49.1 ± 4.8	23.5 ± 6.2	2.61 ± 0.21	–	–	0.916	0.7	0.657	0.209	0.198	0.29	64.5 ± 5.7	36.8 ± 12	8.23 ± 3.5	–	–	17.6	16.4	–	–	–	–	–	–
